The experiment concerns the target Ubiquitin carboxyl-terminal hydrolase 30 (Homo sapiens) (UniProt Q70CQ3). As to the kind of experiment: ubiquitin-specific protease 30 DUB inhibitors, concentration-effect, biochemical, validation of primary actives (AID 1645865). Conditions: purified USP30, Ub-rhodamine cleavage, fluorescence, 2 h.

Structures are written as SMILES. The source made the active and inactive calls.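 Rule for the calls: active = maximal inhibition of the USP30 enzyme reaching 30% or more across the dose series; inactive = the rest.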

Sequence of Ubiquitin carboxyl-terminal hydrolase 30 (Homo sapiens) (Q70CQ3 whole entry, looked up): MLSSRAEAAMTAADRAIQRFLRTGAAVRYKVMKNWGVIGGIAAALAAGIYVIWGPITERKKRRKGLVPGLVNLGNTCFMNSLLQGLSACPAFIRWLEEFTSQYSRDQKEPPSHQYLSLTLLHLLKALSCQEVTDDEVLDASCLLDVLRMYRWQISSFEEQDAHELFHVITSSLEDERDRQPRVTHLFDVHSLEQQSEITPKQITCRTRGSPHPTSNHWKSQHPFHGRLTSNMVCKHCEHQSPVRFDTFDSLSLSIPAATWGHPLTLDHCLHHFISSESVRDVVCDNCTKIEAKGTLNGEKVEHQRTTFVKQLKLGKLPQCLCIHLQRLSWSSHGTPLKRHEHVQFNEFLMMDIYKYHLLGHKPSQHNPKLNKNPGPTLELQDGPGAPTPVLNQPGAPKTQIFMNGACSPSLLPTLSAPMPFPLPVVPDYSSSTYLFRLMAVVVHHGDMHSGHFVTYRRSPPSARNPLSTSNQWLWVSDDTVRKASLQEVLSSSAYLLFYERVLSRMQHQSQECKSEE

In the case of `COc1cc(Cn2cnc3c([nH]c4ccc(Br)cc43)c2=O)cc(OC)c1`, the IC50 (in general, the concentration that inhibits the measured activity by half) was 2.67 µM. As for `NC(=O)c1nc(-c2cccc(F)c2)nc2c1[nH]c(=O)n2C1CCCCC1`, the 50% inhibitory concentration (IC50) was 3.78 µM. For `COc1ccc(NCc2nc3ccccc3n2Cc2ccccc2)cc1` the value was > 50 µM (inactive).

`O=C(Cn1c(-c2ccccc2)ncc(C(=O)NC2CC2)c1=O)Nc1ccccc1`: the 50% inhibitory concentration (IC50) is 14.4 µM. Regarding `Cc1cc(Cl)ccc1Nc1nc(Nc2cccc(F)c2)nc2nccnc12`, the IC50 is > 50 µM (inactive).

Turning to `CC1(O)CC(=O)c2c(cc3cc(O)cc(O)c3c2O)C1` (stereo not given), the half-inhibitory concentration (IC50) was 0.182 µM. The result for `Fc1cccc(Cn2cc(-c3noc(-c4cccnc4)n3)nn2)c1` reads 26.4 µM.

Consider `COc1ccc(CN2CCCC23CCCN(C(=O)CCc2cccnc2)C3)cc1F` (stereo not given), for which the half-inhibitory concentration (IC50) is 33.1 µM.

`COc1ccc(NC(=O)Nc2cccc(-c3nnc(-c4ccccc4)o3)c2)cc1OC`: the IC50 is 8.55 µM.

On to `COc1ccccc1-c1ccc(CN2[C@@H](c3ccccc3)C[C@@H]3NC(=O)CCC[C@H]32)cc1`, for which the IC50 was > 50 µM (inactive).

Take `Cc1ccc(NC(=O)c2cc(-c3cccnc3)n(-c3ccccc3)n2)nc1`: the IC50 was 32.3 µM.

As to `Cc1c(Cl)cccc1NC(=O)Cn1ccc2ccccc2c1=O`, the IC50 is 3.03 µM.

`COc1ccc(/C=C/C(=O)N2CCc3ccccc32)cc1S(=O)(=O)N1CCOCC1`: the IC50 is > 50 µM (inactive). The result for `COc1ccc(CCNC(=O)COc2ncnc3oc(C)c(C)c23)cc1OC` reads > 50 µM (inactive); that for `c1ccc2c(Cc3nc(-c4ccncc4)no3)cccc2c1`, > 50 µM (inactive); that for `O=C(CSc1nnc2n1CCCCC2)Nc1ccc2[nH]c(=O)[nH]c2c1`, > 50 µM (inactive). The result for `COc1ccc(CCNC(=O)CSc2cn(CCNC(=O)c3ccc(F)cc3)c3ccccc23)cc1OC` reads 19.9 µM; that for `O=C(CCCC(=O)c1ccccc1)Nc1ccc(F)cc1`, 31.4 µM; that for `Cc1ccc(S(=O)(=O)N2CCC3(CC2)NC(=O)c2ccccc2N3)cc1C`, 27.2 µM. The result for `Cc1ccc2c(c1)[C@]1(C(=O)N2)[C@@H](C(=O)c2ccccc2)[C@]2(C(=O)Nc3ccccc32)[C@@H]2CCCN21` reads 35.1 µM. `CC1OC1C(=O)[C@]1(O)[C@H](C)[C@@H](O)[C@@]23O[C@@]2([C@H](O)c2c(O)cccc2C3=O)[C@H]1O` (stereo not given in full): the IC50 was > 50 µM (inactive). The result for `CO/C1=C\C(C)=C/[C@@H](C)[C@@H](O)[C@@H](C)C/C(C)=C/C=C/[C@H](OC)[C@@H]([C@@H](C)[C@@H](O)[C@H](C)[C@@]2(O)C[C@@H](OC(=O)/C=C/C(N)=O)[C@H](C)[C@@H](C(C)C)O2)OC1=O` reads > 50 µM (inactive); that for `COc1ccc(C(=O)N2CCCC3(C2)Nc2cccnc2NC3=NC2CCCC2)cn1` (stereo not given), > 50 µM (inactive). For `CN(C)C(=O)CSc1nnc(-c2cccc(Cl)c2)n1-c1ccc(Cl)c(C(F)(F)F)c1` the value was 2.08 µM; for `Cc1cc(C)c2cc3c(nc2c1)OC(=O)N(Cc1ccco1)C3`, 23.2 µM. The result for `O=C(Cn1c(=O)n(CCCC(=O)N2CC=C(c3ccccc3)CC2)c(=O)c2ccccc21)NCCC1=CCCCC1` reads > 50 µM (inactive). As to `Fc1cccc(-n2cc(-c3noc(-c4ccccn4)n3)nn2)c1`, the IC50 is 27 µM.

Regarding `Cc1ccc(NC(=O)Cn2c(Nc3cccc(C)c3)nc(C)cc2=O)cc1`, the half-inhibitory concentration (IC50) was 26.6 µM. For `CC(C(=O)NCc1ccc(F)cc1)n1cccc1C(=O)c1ccccc1` (stereo not given) the value was > 50 µM (inactive). In the case of `COc1cc(-c2nc(C(N)=O)c3[nH]c(=O)n(-c4ccc(C)cc4)c3n2)cc(OC)c1OC`, the IC50 is 2.13 µM. The result for `COc1cccc2cc(C(=O)Nc3ccc4c(c3)OCCO4)oc12` reads > 50 µM (inactive).

As for `O=C(Nc1cccn(Cc2c(Cl)cccc2Cl)c1=O)c1ccccc1[N+](=O)[O-]`, the IC50 is > 50 µM (inactive). The result for `c1ccc(-n2nnc(-c3noc(-c4cccnc4)n3)c2-c2ccncc2)cc1` reads 25.9 µM. In the case of `CN(c1ccccc1)c1nc(=O)n(CC(=O)Nc2ccc3c(c2)OCCO3)c2ccccc12`, the half-inhibitory concentration (IC50) is 35.9 µM.

With `O=C1CC(O)C(O)c2cccc(O)c21` (stereo not given), the IC50 was > 50 µM (inactive). In the case of `Cc1nc(CN2CCn3c(Cn4cccn4)cnc3C2C)cs1` (stereo not given), the IC50 was > 50 µM (inactive). For the molecule `O=c1[nH]c2ccccc2cc1CN(Cc1ccco1)S(=O)(=O)c1ccc(F)cc1`, the IC50 was > 50 µM (inactive).

As for `Cc1ccc(-c2csc(-n3ncc(C(=O)N4CCN(C(=O)Nc5cccc6ccccc56)C(C)C4)c3C(C)C)n2)cc1` (stereo not given), the IC50 was > 50 µM (inactive). Turning to `CC(OC(=O)CNC(=O)c1ccc(Br)cc1)C(=O)Nc1ccc2c(c1)OCCO2` (stereo not given), the IC50 is 28 µM. Regarding `Clc1ccccc1CSc1nnc(C2CCCCC2)n1Cc1ccccc1`, the IC50 was 21.5 µM. The result for `COc1cc2c(cc1OC)-c1cc(NCc3cc(OC)c(OC)c(OC)c3)nc(=O)n1CC2` reads > 50 µM (inactive). On to `CCc1ccc(OCc2nnc(SCC(=O)Nc3ccccc3OC)n2Cc2ccccc2)cc1`, for which the IC50 is > 50 µM (inactive). The result for `CCn1cnc2c(-c3ccccc3)cn(CC(=O)NCc3ccc4c(c3)OCO4)c2c1=O` reads 5 µM. The result for `CNC(=O)c1c2n(c3ncccc13)CCN(S(=O)(=O)c1ccc(-c3ccccc3)cc1)C2` reads 3.95 µM; that for `CS(=O)(=O)N1CCCc2cc(C(=O)Nc3ccc(Oc4ccccc4)cc3)ccc21`, > 50 µM (inactive).

For the molecule `CCOc1ccc(NC(=O)Cn2c(=O)n(CCC(=O)NCc3ccccc3OC)c(=O)c3ccccc32)cc1`, the half-maximal inhibitory concentration (IC50) is 3.39 µM.

For the molecule `CC1CCc2c(sc3ncnc(NC4CCN(CC(N)=O)CC4)c23)C1` (stereo not given), the IC50 was > 50 µM (inactive). The result for `O=[N+]([O-])c1cccc(-c2noc(CSc3ccccc3)n2)c1` reads 46.6 µM; that for `O=C(Cc1nnc2c(-c3nc(C4CC4)no3)cccn12)Nc1ccccc1`, 26.8 µM.

As to `COc1ccc(C2CC(=O)Nc3n[nH]c(-c4ccccc4)c32)cc1OC` (stereo not given), the 50% inhibitory concentration (IC50) was 18.8 µM. As for `Cc1ccc2c(=O)c3c([nH]c2c1C)CCN(CC(=O)NCc1ccccc1)C3`, the IC50 is > 50 µM (inactive). For `Cc1cc(NC(=O)COc2ccc3oc4ccccc4c3c2)no1` the value was > 50 µM (inactive). Take `COc1ccc(NC(=O)c2nnn(-c3ccccc3C)c2C)cc1OC`: the IC50 is > 50 µM (inactive). Turning to `O=c1[nH]c(C2CCN(S(=O)(=O)c3ccc(S(=O)(=O)NC4CCCC4)cc3)CC2)nc2c1nnn2Cc1cccc(Cl)c1`, the IC50 is > 50 µM (inactive).

With `Cc1ccc2c(c1)[C@]1(C(=O)N2)[C@@H]2C(=O)N(c3cccc(C(F)(F)F)c3)C(=O)[C@@H]2C2CCCN21` (stereo not given in full), the IC50 is > 50 µM (inactive). The result for `Cc1sc2ncnc(OCc3ccc(F)cc3Cl)c2c1C` reads > 50 µM (inactive). Take `Cc1cc(SCc2ncon2)c(C)cc1Cl`: the IC50 was > 50 µM (inactive). For `COc1ccc(C(=O)NCc2csc3ccccc23)cc1` the value was 45.2 µM; for `N#Cc1ccc(-c2ccc(OCC(=O)Nc3ccc4c(c3)OCO4)cc2)cc1`, 3.89 µM; for `COc1cc(C(=O)OCc2csc(-c3ccccc3)n2)ccc1OCC(=O)Nc1ccc(F)cc1`, > 50 µM (inactive). On to `Cn1c(=O)/c(=C/c2ccccc2)[nH]c(=O)/c1=C/c1ccccc1`, for which the 50% inhibitory concentration (IC50) is 14.6 µM.

With `CNS(=O)(=O)c1ccc(CNC(=O)c2cc(-c3ccc(C)cc3)no2)cc1`, the concentration for half-maximal inhibition (IC50) is 18 µM. The result for `Cc1ccc(CNC(=O)CCCn2c(=O)c3sccc3n(CC(=O)Nc3cc(Cl)ccc3C)c2=O)cc1` reads 2.13 µM. In the case of `Cc1ccc(NC(=O)c2sc3ncn(CC(=O)N4CCN(c5ccccn5)CC4)c(=O)c3c2C)c(Br)c1`, the IC50 was 8.36 µM. Turning to `CCn1cc(-c2nc(-c3ccccn3)no2)c(=O)c2cc(F)ccc21`, the IC50 was 23.1 µM. For `CC(C)c1nc2sc3c(NCc4ccco4)ncnc3c2c2c1CCC2` the value was > 50 µM (inactive); for `CSc1ncc(C(=O)NC(C)c2ccccc2)c(-c2ccccc2)n1` (stereo not given), 21.9 µM; for `O=C(CSc1nc2ccccc2n1S(=O)(=O)c1ccc(Br)cc1)Nc1ccc([N+](=O)[O-])cc1Cl`, 41 µM. For `CCOc1ccc2[nH]c3c(=O)n(CCc4ccc(OC)cc4)cnc3c2c1` the value was 2.05 µM. Turning to `O=C(Cc1cccnc1)Nc1ccc(N2CCN(C3CCCCC3)C2=O)nc1`, the IC50 is > 50 µM (inactive).

On to `Cc1ccc(CNC(=O)c2ccc(N3C(=O)[C@@H]4Cc5ccccc5CN4C3=O)cc2)cc1`, for which the IC50 was 23.6 µM. For `COCCN(C1CCN(CCc2ccc(Cl)cc2)CC1)S(=O)(=O)c1cccc2cccnc12` the value was > 50 µM (inactive); for `COc1ccc(-c2cc3nc([C@H](C)NC(=O)Cc4cccc(F)c4)nn3cn2)cc1`, 3.92 µM; for `N#Cc1ccccc1Cn1c(=O)n(Cc2ccco2)c(=O)c2ccccc21`, > 50 µM (inactive).

As to `O=S(=O)(c1ccccc1)N1CCN2Cc3ccccc3N(Cc3ccccc3)CC2C1` (stereo not given), the IC50 was > 50 µM (inactive). For `CC(=O)Nc1ccc(O)c(-c2nc3cc(C)ccc3o2)c1` the value was 3.99 µM; for `Cc1ccc(Cn2cc(-c3noc(-c4ccncc4)n3)nn2)cc1`, 27.6 µM; for `COc1ccc(-c2nonc2NC(=O)C(c2ccccc2)c2ccccc2)cc1OC`, > 50 µM (inactive). The result for `COc1cccc(C(=O)NCc2[nH]nc3ccccc23)c1` reads > 50 µM (inactive). For `O=C1N(Cc2ccc(F)cc2)CCN1c1ccc2c(c1)CCC2` the value was > 50 µM (inactive).

For the molecule `O=C(Cn1c(=O)n(CCC(=O)N2CC=C(c3ccccc3)CC2)c(=O)c2ccccc21)NCc1ccco1`, the IC50 is > 50 µM (inactive). For `COCC(C)Nc1ncc(-c2cnccn2)c(-c2ccc(C)s2)n1` (stereo not given) the value was > 50 µM (inactive); for `O=c1c2cnc3nc(-c4cccnc4)nn3c2ccn1CCc1ccccc1`, > 50 µM (inactive); for `Cc1cc(=O)n(CC(=O)NCc2ccccc2F)c2c1c(C)nn2-c1ccccc1`, 32.7 µM. For `Cc1cc(N2CCN(c3ncccn3)CC2)nc2ccc(NC(=O)/C=C/c3ccccc3Cl)cc12` the value was 4.88 µM.

(Values after PubChem BioAssay AID1645865 (Buhrlage Lab, Dana-Farber Cancer Institute and Novartis …, 2021).)
